Literature values in patent US20260240991A1, “METHODS OF HEMATOPOIETIC PRECURSOR CELLS MOBILIZATION” (BioLineRx Ltd., priority 2023, published 2026).
Read-outs that look alike come from different tables or passages of the source. Bridges are numbered along the chain shown (N, C = ends). [ ]: non-standard residue; d: D form. The star is where a group is joined. 2Nal = N[C@@H](Cc1ccc2ccccc2c1)C(=O)O; Benzoyl(4-F) = O=C(c1ccc(F)cc1)*; Cit = NC(=O)NCCC[C@H](N)C(=O)O

What was measured:
[1] = test system: CD34+ cells; conditions: patients with MS
[2] = test system: circulating CD34+ cells
[3] = test system: PB progenitor cells; conditions: mice
[4] = test system: PB CD34+ cells

Row | Substance | increase in PB CD34+ cells [1] | time of maximum absolute CD34+ count following treatment [1] | increase in BM CD34+ cells ([1]; dose-dependent) | maximal concentration of circulating CD34+ cells ([2]; MS patients, 72 hours following administration) | persistence of elevation in PB CD34+ cells following administration ([2]; Zohren and Bonig) | increase in PB progenitor cells ([3]; agent alone) | time of peak of PB progenitor cell increase following administration of the dose ([3]; agent alone) | PB progenitor cell increase compared with Plerixafor and G-CSF ([3]; combined with G-CSF) | increase in PB progenitor cells over controls ([3]; combined with G-CSF) | tolerability ([4]; human, in vivo) | number of apheresis sessions required ([4]; myeloma patients, 900 μg/kg) | effect on mean absolute PB CD34+ cells ([4]; myeloma patients, dose escalation) | mean PB CD34+ count ([4]; myeloma patients, highest dose tested 900 μg/kg) | number of apheresis sessions required ([4]; myeloma patients, lower doses)
1 | Natalizumab: recombinant humanized monoclonal antibody against d4 subunit of VLA-4 | 7 fold | 4 days | 7 fold | 10.4 CD34+ cells/μL | at least 1 month |  |  |  |  |  |  |  |  | 
2 | 4F-benzoyl-Arg-Arg-Nal-Cys-Tyr-Cit-Lys-DLys-Pro-Tyr-Arg-Cit-Cys-Arg-NH2 ({Benzoyl(4-F)}-RR[2Nal]CY[Cit]K[dK]PYR[Cit]CR-NH2; disulfide 4-13 (inferred)) [Motixafortide] |  |  |  |  |  | ≤ 10 fold | 1 to 2 h | higher than seen with a combination of Plerixafor and G-CSF | 78 fold | well-tolerated | 1 | dose-dependent increase | 2.06e+07 kg⁻¹ | 2.25
